The values below come from patent US20220348595A1, “COMPOUNDS AND METHODS FOR THE TARGETED DEGRADATION OF ESTROGEN RECEPTORS” (Endotarget Inc., priority 2021, published 2022).

Holding throughout (type): cell-based
The target in one test is T1, ER (Homo sapiens, UniProt P03372).
T1 construct: endogenous in cells; host or cells: T47d-kb-Luc (T47D stably transfected with a luciferase reporter gene only)
T1 sequence (P03372 1-595): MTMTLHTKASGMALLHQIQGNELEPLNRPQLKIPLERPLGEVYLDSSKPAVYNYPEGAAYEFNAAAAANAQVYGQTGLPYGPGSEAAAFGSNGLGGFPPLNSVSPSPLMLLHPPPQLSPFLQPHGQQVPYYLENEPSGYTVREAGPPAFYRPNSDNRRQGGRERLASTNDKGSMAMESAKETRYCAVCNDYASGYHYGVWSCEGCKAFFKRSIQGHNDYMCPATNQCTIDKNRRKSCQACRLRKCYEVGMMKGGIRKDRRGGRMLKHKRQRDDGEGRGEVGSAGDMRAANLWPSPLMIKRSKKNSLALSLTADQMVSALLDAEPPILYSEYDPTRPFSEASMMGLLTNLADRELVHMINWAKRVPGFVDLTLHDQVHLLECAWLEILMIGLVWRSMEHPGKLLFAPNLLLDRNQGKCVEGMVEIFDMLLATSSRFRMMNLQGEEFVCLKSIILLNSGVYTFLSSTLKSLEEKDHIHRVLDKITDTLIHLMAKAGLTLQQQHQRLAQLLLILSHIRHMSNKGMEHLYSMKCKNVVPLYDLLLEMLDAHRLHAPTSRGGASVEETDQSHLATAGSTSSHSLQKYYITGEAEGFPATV
In words: ER antagonism (T47D ERE luciferase), T47d-kb-Luc cells. The following applies: read-out: IC50 (ER antagonistm). The procedure:
The Antiestrogenic Activity of the Exemplary Compounds was Assessed in T47d-kb-Luc Stably Transfected Human Breast Cancer Cell
Antagonist activities were measured by the compound's ability to inhibit the activity of estradiol, the natural estrogen. Data were then normalized relative to the activity of the estradiol control and determinations were performed for five concentrations of the samples in quadruplicate in at least three separate experiments.

Test [1] has as its system MCF-7 breast cancer cells. In words: MCF-7 proliferation / cell viability assay. The following applies: MCF-7 proliferation with 0.1 nM 17-beta estradiol, read-out: IC50 (anti-proliferation). The procedure: The Anti-Proliferative Activities of the Exemplary Compounds were Assessed by a Cell Viability Assay in MCF-7 Breast Cancer Cells
MCF-7 cells were plated in six-well plates at a density of 50,000 each well in 5% FBS DMEM medium. The cells were then treated with exemplary compounds or fulvestrant separately at 6 different doses ranging from 10^−10 M to 10^−5 M for 5 days, while equal volumes of DMSO were used as vehicle controls. Viable cell numbers were counted with a Z Series Coulter Counter instrument (Beckman-Coulter) following manufacturer's instructions. The ratio of drug treated viable cell numbers to vehicle treated viable cell numbers was defined as survival ratio where the control has the survival ratio of 100%.

Another test addresses T2, ERα (Homo sapiens, UniProt P03372).
T2 construct: endogenous in cells; host or cells: MCF-7
T2 sequence (P03372 1-595): T1 sequence (P03372 1-595)
In words: ER degradation in MCF-7 cells (Western blot). The following applies: for DC50: ER degradation, 24 hours. The procedure: Degradation of ER in MCF-7 Breast Cancer Cells by Exemplary Compounds of the Present Disclosure
MCF-7 cells were plated in 24-well plates at a density of 10^5 cells/well. Media containing various drug concentrations were added on the day following plating (day 0) and allowed to incubate for 24 hours for Western blot. Media with the tested compound was changed every other day. Cells were lysed, snapped frozen in liquid nitrogen, and stored at −80° C. until assay for ERα. Media were removed and dishes were washed with 1× DPBS. Lysates were made by adding 150 μL of complete lysis solution and scraping cells into a 1.5 mL microcentrifuge tube. Lysates were placed on a rotisserie at 4° C. for 30 min and then spun at 4° C. at 12000 rcf for 10 min. Supernatants were assayed for protein content, snap-frozen, and stored a −80° C. if not run immediately. Then 50 μg of protein was subjected to Western blot protocol. Membranes were blocked and then incubated with 1:200 dilution of ERα antibody at 4° C. overnight followed by 1:10000 dilution of secondary antibody for 1 h at room temperature. They were then imaged on a LICOR infrared scanner.
FIGS. 1 to 10 show the ER degradation efficacy of compounds 3, 5, 9, 11, 12, 16, 18, 19, 20, 21, 23, 24, 25, 26, 27, 28, 29, 30, 31, 32, 33, 34, 37, 38, and 40 in MCF-7 cells at various concentrations. Degradation of ER was expressed as an DC50 value and was determined for exemplary compounds in Table 1 by calculation of the concentration of compound that was required to give a 50% reduction of ER expression level. Maximal degradation of ER was expressed as a Dmax value by measuring the highest percentage of ER reduction achieved by exemplary compound in the treatment concentration range.
(In general: In western blotting, separated proteins are transferred to a membrane and probed.)

[2] abbreviates: MCF7, Maximal ER degradation, read-out: Dmax.

Like-named read-outs stand apart in the source and are kept apart here. Bounds are passed on as bounds.

The DC50 is the concentration giving 50% degradation. The Dmax is the largest share of the target that was removed. For the compound `CC/C(=C(/c1ccc(B(O)O)cc1)c1ccc(N2CCN(CCC3CCN(c4ccc5c(c4)C(=O)N(C4CCC(=O)NC4=O)C5=O)CC3)CC2)cc1)c1ccccc1` (stereo not shown) [Compound 66, (E)-(4-(1-(4-(4-(2-(1-(2-(2,6-dioxopiperidin-3-yl)-1,3-dioxoisoindolin-5-yl)piperidin-4-yl)ethyl)piperazin-1-yl)phenyl)-2-phenylbut-1-en-1-yl)phenyl)boronic acid], the IC50 at ER was 10 to 50 nM; in test [1] (Homo sapiens, MCF7), 10 to 50 nM. On ERα, this compound had a DC50 of under 10 nM. In addition, the Dmax on ERα (setting [2]) was over 90%.
For `CC/C(=C(/c1ccc(B(O)O)cc1)c1ccc(N2CCN(CCN3CCN(c4ccc5c(c4)C(=O)N(C4CCC(=O)NC4=O)C5=O)CC3)CC2)cc1)c1ccccc1` (stereo not shown) [Compound 60, (E)-(4-(1-(4-(4-(2-(4-(2-(2,6-dioxopiperidin-3-yl)-1,3-dioxoisoindolin-5-yl)piperazin-1-yl)ethyl)piperazin-1-yl)phenyl)-2-phenylbut-1-en-1-yl)phenyl)boronic acid], the IC50 at ER was in the range of 10 to 50 nM; in test [1] (Homo sapiens, MCF7), 10 to 50 nM. This compound also came in with a DC50 on ERα of 10 to 50 nM. Moreover, the Dmax at ERα (setting [2]) is over 90%.
As to `CC/C(=C(/c1ccc(O)cc1)c1ccc(OCCN2CCN(C(=O)N3CCC(CN4CCN(c5ccc6c(c5)CN(C5CCC(=O)NC5=O)C6=O)CC4)CC3)CC2)cc1)c1ccccc1` (stereo not shown) [Compound 90, (E)-3-(5-(4-((1-(4-(2-(4-(1-(4-hydroxyphenyl)-2-phenylbut-1-en-1-yl)phenoxy)ethyl)piperazine-1-carbonyl)piperidin-4-yl)methyl)piperazin-1-yl)-1-oxoisoindolin-2-yl)piperidine-2,6-dione], the IC50 is under 10 nM at ER and under 10 nM in test [1] (Homo sapiens, MCF7). In addition, the DC50 at ERα was under 10 nM. Besides, the maximal degradation (Dmax) at ERα (setting [2]) is over 90%.
Take `CC/C(=C(\c1ccc(OCCN2CCN(CCN3CCN(c4ccc5c(c4)C(=O)N(C4CCC(=O)NC4=O)C5=O)CC3)CC2)cc1)c1ccc(B(O)O)cc1)c1ccccc1` (stereo not shown) [Compound 24]: the IC50 is 10 to 50 nM on ER and 10 to 50 nM in test [1] (Homo sapiens, MCF7). The DC50 on ERα is under 10 nM. The Dmax at ERα (setting [2]) is over 90%.
`CC/C(=C(\c1ccc(O)cc1)c1ccc(OCCN2CCN(C(=O)N3CCN(c4ccc5c(c4)CN([C@H]4CCC(=O)NC4=O)C5=O)CC3)CC2)cc1)c1ccccc1` [Compound 78, (S,Z)-3-(5-(4-(4-(2-(4-(1-(4-hydroxyphenyl)-2-phenylbut-1-en-1-yl)phenoxy)ethyl)piperazine-1-carbonyl)piperazin-1-yl)-1-oxoisoindolin-2-yl)piperidine-2,6-dione]: the IC50 at ER is under 10 nM; in test [1] (Homo sapiens, MCF7), under 10 nM. This compound had a DC50 at ERα of under 10 nM. For the same compound, on ERα (setting [2]), the Dmax was over 90%.
Turning to `CC/C(=C(/c1ccc(OCCN2CCN(c3ccc4c(c3)C(=O)N(C3CCC(=O)NC3=O)C4=O)CC2)cc1)c1ccc(B(O)O)cc1)c1ccccc1` (stereo not shown) [Compound 41, (Z)-(4-(1-(4-(2-(4-(2-(2,6-dioxopiperidin-3-yl)-1,3-dioxoisoindolin-5-yl)piperazin-1-yl)ethoxy)phenyl)-2-phenylbut-1-en-1-yl)phenyl)boronic acid], the IC50 fell in the range of 10 to 50 nM at ER and 10 to 50 nM in test [1] (Homo sapiens, MCF7). On ERα, the half-maximal degradation concentration (DC50) lay in the range of 10 to 50 nM. Besides, the Dmax on ERα (setting [2]) is over 50%.
With `CC/C(=C(/c1ccc(B(O)O)cc1)c1ccc(C2CCN(CCCN3CCN(c4ccc5c(c4)CN(C4CCC(=O)NC4=O)C5=O)CC3)CC2)cc1)c1ccccc1` (stereo not shown) [Compound 50, (E)-(4-(1-(4-(1-(3-(4-(2-(2,6-dioxopiperidin-3-yl)-1-oxoisoindolin-5-yl)piperazin-1-yl)propyl)piperidin-4-yl)phenyl)-2-phenylbut-1-en-1-yl)phenyl)boronic acid], the IC50 is under 10 nM at ER and 10 to 50 nM in test [1] (Homo sapiens, MCF7). The compound also came in with a DC50 at ERα of under 10 nM. For the same compound, on ERα (setting [2]), the Dmax was over 90%.
`CC/C(=C(\c1ccc(OCCN2CCC(C3CCN(c4ccc5c(c4)C(=O)N(C4CCC(=O)NC4=O)C5=O)CC3)CC2)cc1)c1ccc(B(O)O)cc1)c1ccccc1` (stereo not shown) [Compound 34, (E)-(4-(1-(4-(2-(1′-(2-(2,6-dioxopiperidin-3-yl)-1,3-dioxoisoindolin-5-yl)-[4,4′-bipiperidin]-1-yl)ethoxy)phenyl)-2-phenylbut-1-en-1-yl)phenyl)boronic acid]: the IC50 was in the range of 10 to 50 nM on ER and 10 to 50 nM in test [1] (Homo sapiens, MCF7). Further, the DC50 at ERα is under 10 nM. Also, the greatest degradation seen (Dmax) at ERα (setting [2]) is over 90%.
Turning to `CC/C(=C(\c1ccc(OCCN2CCN(CCC3CCN(c4ccc5c(c4)C(=O)N(C4CCC(=O)NC4=O)C5=O)CC3)CC2)cc1)c1ccc(B(O)O)cc1)c1ccccc1` (stereo not shown) [Compound 26, (E)-(4-(1-(4-(2-(4-(2-(1-(2-(2,6-dioxopiperidin-3-yl)-1,3-dioxoisoindolin-5-yl)piperidin-4-yl)ethyl)piperazin-1-yl)ethoxy)phenyl)-2-phenylbut-1-en-1-yl)phenyl)boronic acid], the IC50 at ER was 10 to 50 nM; in test [1] (Homo sapiens, MCF7), 10 to 50 nM. In addition, on ERα, the DC50 is under 10 nM. The Dmax at ERα (setting [2]) was over 90%.
With `CC/C(=C(/c1ccc(OCCN2CCN(C(=O)N3CCN(c4ccc5c(c4)CN([C@@H]4CCC(=O)NC4=O)C5=O)CC3)CC2)cc1)c1ccc(B(O)O)cc1)c1ccccc1` [Compound 85, (R,Z)-(4-(1-(4-(2-(4-(4-(2-(2,6-dioxopiperidin-3-yl)-1-oxoisoindolin-5-yl)piperazine-1-carbonyl)piperazin-1-yl)ethoxy)phenyl)-2-phenylbut-1-en-1-yl)phenyl)boronic acid], the IC50 was under 10 nM on ER and under 10 nM in test [1] (Homo sapiens, MCF7). Further, the half-maximal degradation concentration (DC50) at ERα was under 10 nM. Also, the Dmax at ERα (setting [2]) is over 90%.
With `CC/C(=C(\c1ccc(O)cc1)c1ccc(N2CCN(C(=O)N3CCN(c4ccc5c(c4)CN([C@H]4CCC(=O)NC4=O)C5=O)CC3)CC2)cc1)c1ccccc1` [Compound 98], the IC50 is under 10 nM on ER and 10 to 50 nM in test [1]. The compound also had a DC50 on ERα of 10 to 50 nM. The Dmax entry on ERα (Maximal ER degradation) is “A (A -> 90%)”.
Turning to `CC/C(=C(/c1ccc(OCCN2CCN(CC3CCN(c4ccc5c(c4)C(=O)N(C4CCC(=O)NC4=O)C5=O)CC3)CC2)cc1)c1ccc(B(O)O)cc1)c1ccccc1` (stereo not shown) [Compound 17, (Z)-(4-(1-(4-(2-(4-((1-(2-(2,6-dioxopiperidin-3-yl)-1,3-dioxoisoindolin-5-yl)piperidin-4-yl)methyl)piperazin-1-yl)ethoxy)phenyl)-2-phenylbut-1-en-1-yl)phenyl)boronic acid], the IC50 on ER lay in the range of 10 to 50 nM; in test [1] (Homo sapiens, MCF7) it was 10 to 50 nM. In addition, the DC50 on ERα was under 10 nM. In addition, the Dmax on ERα (setting [2]) was over 90%.
On to `CC/C(=C(/c1ccc(B(O)O)cc1)c1ccc(N2CCC(CNC3CCN(c4ccc5c(c4)CN(C4CCC(=O)NC4=O)C5=O)CC3)CC2)cc1)c1ccccc1` (stereo not shown) [Compound 12], for which the IC50 on ER was under 10 nM; in test [1] (Homo sapiens, MCF7), under 10 nM. This compound also showed a DC50 at ERα of under 10 nM. In addition, the Dmax at ERα (setting [2]) is over 90%.
